Measured values from patent US12402629B2, “Aspergillus terreus strain and composition for controlling bacterial plant diseases using strain or culture filtrate thereof” (Andong National University Industry-Academic Cooperation …, priority 2022, dated 2025).
Entries after “also recorded” stand apart in the source; their conditions may differ.

Key:
Dickeya chrysanthemi [1] = assay: Pathogen inoculation experiment on potato (potato soft rot control effect); type: in vivo; settings: potato treated at the same time with D.c. suspension 2×10^6 cfu/ml and 400 ppm MPP (FIG. 6)
Method: In order to test whether the culture filtrate of the Aspergillus terreus ANU-301 strain of the present disclosure has a control effect on potato soft rot caused by Dickeya chrysanthemi bacteria, a pathogen inoculation experiment was performed (FIG. 3).
In potato plants inoculated with Dickeya chrysanthemi bacteria (D.c.), browning progressed at the inoculation site, and symptoms of soft rot disease were confirmed.
A pathogen inoculation experiment was conducted to test whether the MPP component present in the culture filtrate of the Aspergillus terreus ANU-301 strain of the present disclosure is effective in controlling potato soft rot disease caused by Dickeya chrysanthemi bacteria (FIG. 6). In potato plants inoculated with Dickeya chrysanthemi bacteria (D.c.), browning progressed at the inoculation site, and symptoms of soft rot disease were confirmed. […] Hereinafter, the present disclosure will be described in more detail with reference to Examples. However, these examples are presented merely to describe the present disclosure in more detail, and the scope of the present disclosure is not limited to these examples.
In order to evaluate the effect of the ANU-301 strain culture filtrate on potato soft rot inhibition, the culture filtrate was prepared as follows.
The ANU-301 strain was inoculated into sterilized potato dextrose broth (PDB) and cultured at 25° C. for 5 days. […]

Dickeya chrysanthemi [2] = assay: Disc diffusion assay on NA medium; type: cell-based; settings: paper filter disk wetted with 400 ppm of MPP, NA medium (FIG. 5)
Method: To this end, the NA medium (Nutrient agar medium: peptone 5 g, beef extract 1.5 g, yeast extract 1.5 g, NaCl 5 g & agar 15 g/1 L) was smeared with Dickeya chrysanthemi bacteria. After placing a paper filter disk in the center of the medium, 10 μL of culture extract and 400 ppm of MPP were wetted therein, respectively, and the result of culturing the bacteria was observed.

CC(C)(c1ccccc1)c1ccc(O)c(C(C)(C)c2ccccc2)c1 [MPP, 2,4-bis(1-methyl-1-phenylethyl)-phenol]
soft rot symptoms (disease control effect) (Dickeya chrysanthemi [1]): soft rot symptoms were suppressed; also recorded: showed a disease inhibitory effect
bacterial growth / clear zone around the disk (Dickeya chrysanthemi [2]): a clear zone was formed
